Results from US7727511B2, “Agents for imaging soluble a-beta” (priority 2003, dated 2010).
Values joined by “and” are separate entries in the source; they are usually repeats but may differ in a detail not shown here. Equal entries are not always repeated.

Experiments:
[1] = target: T1, beta-amyloid 1-42 oligomer (20% biotin) (Homo sapiens, UniProt P05067); assay: SPA competition binding assay against 3H-49b on soluble oligomers; conditions: 50 uM unlabeled competitor, 130 nM 3H-49b
T1 construct: 12 μg beta-amyloid 1-42 oligomer (20% biotin); purchased Bachem H-5642; host or cells: synthetic peptide
T1 sequence (P05067 672-713 limits assumed): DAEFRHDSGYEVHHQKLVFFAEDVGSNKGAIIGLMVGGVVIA
Method: Lyophilized Streptavidin-Ysi beads (GE Healthcare) were reconstituted to 100 mg/mL in deioniozed water, and then further diluted in deionized water to give a suspension containing 0.25 mg/10 μl water. Unlabeled 49b and other benzofuran probes were dissolved in DMSO to give a final stock concentration of 15 mM.
For the saturation-binding assay, isotopic dilution of radiolabeled 49b with unlabeled 49b was performed. ^3H-49b was added to 500 uM of unlabeled 49b to a final concentration of 50 μCi/mL ^3H-49b. The probe solution was then serially diluted in PBS to give six solutions giving 6.6, 13.1, 26.3, 52.5, 105, or 210 uM in the final assay well. Each concentration of the probe solution was incubated with 12 μg beta-amyloid 1-42 oligomer (20% biotin) or 1-40 (20% biotin) fibrils in a total volume of 90 μl. Assays were incubated at room temp for 2 hrs before addition of 10 μL YSi-streptavidin (0.25 mg) SPA bead. Assays were set-up in triplicate in 96-well NBS plates (Costar). Assays were incubated overnight and counted the following morning. […] The specific activities of the four probes were different, however the level of activity was the same at the concentrations where the probes were tested. For this assay, 130 nM of ^3H-49b, 90 nM ^3H-cimetidine, 14 nM ^3H-caffeine, and 6 nM ^3H-AZT were tested for direct binding to 12 ug of beta-amyloid-42 oligomer (20% biotin). Assay conditions were the same as described in saturation binding assay. […]
Data analyses were performed using Sigma Plot or GraphPad Prism® version 4. Curves were fitted using non-linear regression. KD values and IC50 values were estimated from the binding curves.
For the competition binding assay between tritium-labeled 49b and various unlabeled benzofuran analogs, assays contained 130 nM ^3H-49b and 50 uM of each of the unlabeled benzofuran analogs. As controls, 10 uM and 50 uM of unlabeled 49b were included in the assays.

soluble A-beta (1-42) = target: T2, soluble A-beta (1-42) (Homo sapiens, UniProt P05067); assay: Fluorescence titration assay, soluble A-beta; format: binding; conditions: for Kd: read-out: KD of compound to soluble A-beta (1-42)
T2 construct: 1 mg of human beta-amyloid 1-42 (H-5642, Bachem); purchased Bachem H-5642; host or cells: synthetic peptide
T2 sequence (P05067 672-713 limits assumed): as above
Method: A. 1 mg of human beta-amyloid 1-42 (H-5642, Bachem) and 500 uL of 1,1,1,3,3,3 hexafluoro-2-propanol (HFIP) (Aldrich) were chilled in separate bottles on ice for 30 mins. Cold beta-amyloid 1-42 was solubilized with cold HFIP. The mixture was incubated for 1 hr at room temperature until it turned clear. The resulting solution was then dried to a film under vacuum. The film was dissolved again in cold HFIP and incubated another 1 hr at room temperature. The resulting solution was separated into aliquots in several microcentrifuge tubes. HFIP was removed under vacuum, and the films were stored at −20° C. until use. To prepare soluble oligomer, the film was dissolved in appropriate amount of dry DMSO (Sigma), and Ham's F12 media (Biosource) or PBS (Sigma, D8537) was added and incubated at 4° C. for 24 hours (final concentration of 200 uM or 0.9 mg/mL beta-amyloid in 2% DMSO). The tube containing the soluble oligomers was centrifuged at 13,000 rpm for 5 mins, and its supernatant was transferred to a clean tube.
(§1) Fresh solutions of 2-4 mM probe in methanol were appropriately diluted with PBS (pH 7.4) to obtain assay solutions with final concentration range of 0.1 nM to 100 μM probe in 300-400 μL PBS (pH 7.4, 2% methanol) with 10 μM A-beta (1-40) fibrils or 6.6 μM soluble A-beta (1-42). A duplicate series of assay solutions were aliquoted with the volume of soluble A-beta or fibrils replaced by PBS. The set of solutions with probe and soluble/fibrillar A-beta and the duplicate set without A-beta were prepared and the fluorescence spectra measured in triplicate. Spectral changes in the probe's fluorescence emission spectra that were unique to the presence of A-beta indicated specific binding interactions between the probe and A-beta species. This unique spectral change allowed for the determination of the probe's binding affinity. Fluorescence emission spectra for binding affinity determinations are measured with fluorometric instrumentation known to those skilled in the art, including at least a spectrofluorometer and spectrograph. Equilibrium dissociation constants were calculated using a one-site saturation model of binding.

A-beta (1-40) fibrils = target: T3, A-beta (1-40) fibrils (Homo sapiens, UniProt P05067); assay: Fluorescence titration assay, fibrils; format: binding; conditions: for Kd: read-out: KD of compound to insoluble A-beta (1-40) fibrils; for binding to A-beta (1-40) fibrils: fluorescence binding assays, stated in words
T3 construct: Lyophilized human beta-amyloid 1-40 peptide (Catalog number H-1194, Bachem); purchased Bachem H-1194; host or cells: synthetic peptide
T3 sequence (P05067 672-711 limits assumed): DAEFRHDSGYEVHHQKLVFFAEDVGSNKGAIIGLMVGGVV
Method: B. Insoluble A-beta (1-40) fibril formation: Lyophilized human beta-amyloid 1-40 peptide (Catalog number H-1194, Bachem) was solubilized with HFIP to produce a dry clear film following the process described above for beta-amyloid 1-42. The clear film of beta-amyloid 1-40 was diluted with distilled water to achieve a 6 mg/mL concentration. […] The clear solution was diluted to 1 mg/mL with PBS, pH 7.4 to obtain a final concentration of 1 mg/mL beta-amyloid 1-40, and then incubated at 37° C. on an orbital shaker at 200 RPM for 4 days. A cloudy solution was produced, and the fibril production was confirmed by measuring changes in fluorescence of Thioflavin T, as well as by atomic force microscopy and transmission electron microscopy. Fibrils were used immediately after their production was confirmed.
as §1

[2] = target: T1, beta-amyloid 1-42 oligomer (20% biotin); assay: Scintillation proximity assay (SPA), direct/saturation binding of tritium labeled probe to soluble oligomers; conditions: 90 nM 3H-cimetidine, 14 nM 3H-caffeine, 6 nM 3H-AZT; 12 ug oligomer
Method: For SPA and atomic force microscopy (AFM) experiments, preparations of soluble oligomers and fibrils contained 20% biotinylated beta-amyloid 1-42 and 1-40, respectively (H-5642, H-5914, Bachem).
For the saturation-binding assay, isotopic dilution of radiolabeled 49b with unlabeled 49b was performed. ^3H-49b was added to 500 uM of unlabeled 49b to a final concentration of 50 μCi/mL ^3H-49b. The probe solution was then serially diluted in PBS to give six solutions giving 6.6, 13.1, 26.3, 52.5, 105, or 210 uM in the final assay well. Each concentration of the probe solution was incubated with 12 μg beta-amyloid 1-42 oligomer (20% biotin) or 1-40 (20% biotin) fibrils in a total volume of 90 μl. Assays were incubated at room temp for 2 hrs before addition of 10 μL YSi-streptavidin (0.25 mg) SPA bead. Assays were set-up in triplicate in 96-well NBS plates (Costar). Assays were incubated overnight and counted the following morning. […] Assay conditions were the same as described in saturation binding assay.
A direct binding assay using tritium labeled 49b was performed against oligomers or fibrils by scintillation proximity assay (SPA). Beta-amyloid containing 20% biotin and tritiated 49b were incubated in solution for two hours prior to addition of the Ysi-Streptavidin beads.

[3] = tested on: beta-amyloid in PDAPP mouse brain sections; assay: Histochemical staining on PDAPP transgenic mouse brain sections; format: binding; conditions: 24-month old PDAPP, carbonate extraction buffer to remove soluble material
Sequence of beta-amyloid in PDAPP mouse brain sections (P05067 672-711 limits assumed): as above
Method: 3-month old and 24-month old PDAPP mouse brains were obtained from Eli Lilly (Indianapolis, Ind.). Fresh frozen 30 micron sections of the brains were fixed in 10% formalin. For 49b, or Thioflavin S staining, 1 mM stock solutions of 49b and Thioflavin S were prepared in 50% ethanol. The probes were diluted to 25 μM in 50% ethanol, and then applied onto the PDAPP brain sections. The slides were incubated in a humid chamber at room temperature for 1 hr. The slides were washed three times with PBS and mounting medium (Molecular Probes) was added. The slides were incubated at least 4-6 hours before imaging. For the carbonate pre-treatment of the brain sections, formalin-fixed sections were incubated with 100 μL of carbonate buffer containing 0.025 M sodium chloride and 0.1 M sodium carbonate for 45 mins at 37° C. The slides were washed three times with PBS, then 49b or Thioflavin S were applied on the slides as described above. Microscopic examination and imaging was performed using a Leica wide-field fluorescence microscope using filter cube A for 49b and cube E4 for Thioflavin S. Co-staining of the probes with 6E10 anti-beta-amyloid antibody in the PDAPP brain sections was described in the ex vivo assay using naïve rats.

[4] = 6.6 μM soluble A-beta (1-42), PBS pH 7.4, 2% methanol
[5] = 10 μM A-beta (1-40) fibrils, PBS pH 7.4, 2% methanol

Row | Molecule | inhibition at 50 µM [1] | further results
1 | COC(=O)[C@H](C(C)C)n1cnc(-c2ccccc2)c1-c1ccc(-c2oc3ccccc3c2CO)o1 [Compound 2c] | 30% | 
2 | OCc1c(-c2ccc(-c3c(-c4ccccc4)ncn3CCF)o2)oc2ccccc12 [Compound 5c] | 48% | 
3 | OCc1c(-c2ccc(-c3cncn3CCF)o2)oc2ccccc12 [Compound 11c] | 58% | 
4 | OCc1c(-c2ccc(C(O)CCC3OCCCO3)o2)oc2ccccc12 (stereo not shown) [Compound 15c] | 68% | 
5 | COc1cc(-c2oc3ccccc3c2CO)cc(OC)c1OC [Compound 37b] |  | Kd (soluble A-beta (1-42); [4]): 22 nM and 22.8 nM; increase in fluorescence intensity (and quantum yield) with soluble A-beta (soluble A-beta (1-42); relative to compound in 2% methanol in PBS): approximately 5 times; Kd (A-beta (1-40) fibrils; [5]): > 100000 nM; binding to A-beta (1-40) fibrils (A-beta (1-40) fibrils): minimal specific binding
6 | Cc1cc(-c2oc3ccccc3c2C(=O)c2ccccc2)ccc1F [Compound 38b] |  | KD of compound to soluble A-beta (1-42) (soluble A-beta (1-42); [4]): Nonspecific binding; binding to soluble A-beta (1-42) (soluble A-beta (1-42); fluorescence binding assays, stated in words): neither binds; KD of compound to insoluble A-beta (1-40) fibrils (A-beta (1-40) fibrils; [5]): Nonspecific binding; binding to A-beta (1-40) fibrils (A-beta (1-40) fibrils): neither binds
7 | Cc1cc(-c2oc3ccccc3c2C)ccc1F [Compound 39b] |  | Kd (soluble A-beta (1-42); [4]): > 100000 nM; Kd (A-beta (1-40) fibrils; [5]): 1680 nM; binding to A-beta (1-40) fibrils (A-beta (1-40) fibrils): specifically binds
8 | CN/C(=N/CCSCc1nc[nH]c1C)NC#N [cimetidine, reference compound] |  | direct binding of tritium labeled probe to soluble oligomers [2]: did not bind
9 | Thioflavin S [reference compound] |  | staining of carbonate pre-treated brain sections [3]: staining remained

More lines, main results first:

Row | inhibition at 50 µM [1] | Molecule | further results
10 | 24% | CC(=O)OCc1c(-c2ccc(CN3CCN(c4ccc(C#N)cc4)CC3)o2)oc2ccccc12 [Compound 1c] | 
11 | 38% | COc1ccc(N2CCN(Cc3ccc(-c4oc5ccccc5c4COC(C)=O)o3)CC2)cc1 [Compound 3c] | 
12 | 41% | COCCN1CCN(Cc2ccc(-c3oc4ccccc4c3COC(C)=O)o2)CC1 [Compound 4c] | 
13 | 51% | N#Cc1ccc(C(O)c2ccc(-c3oc4ccccc4c3CO)o2)cc1 (stereo not shown) [Compound 6c] | 
14 | 51% | CC(=O)OCc1c(-c2ccc(C=O)o2)oc2ccccc12 [Compound 7c] | 
15 | 51% | CC(=O)OCc1c(-c2ccc(C(O)c3ccc(F)c(Cl)c3)o2)oc2ccccc12 (stereo not shown) [Compound 8c] | 
16 | 55% | CC(=O)OCc1c(-c2ccc(CN3CCN(c4ccc(Cl)cc4)CC3)o2)oc2ccccc12 [Compound 9c] | 
17 | 57% | CCOC(=O)c1ccc(C(O)c2ccc(-c3oc4ccccc4c3CO)o2)o1 (stereo not shown) [Compound 10c] | 
18 | 59% | CCOC(=O)c1ccc(C(O)c2ccc(-c3oc4ccccc4c3COC(C)=O)o2)o1 (stereo not shown) [Compound 12c] | 
19 | 60% | CC(=O)OCc1c(-c2ccc(CN3CCN(c4ccc(C(F)(F)F)cc4)CC3)o2)oc2ccccc12 [Compound 13c] | 
20 | 60% | CC(=O)OCc1c(-c2ccc(CN3CCN(c4ccc(C)cc4)CC3)o2)oc2ccccc12 [Compound 14c] | 
